In PubChem BioAssay (NCI):
Several values for one entry are separate records, joined by “and”; a condition that tells them apart may be missing. Equal entries are not always repeated.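 How tested: cells in 96-well plates exposed to compound for 48 hours at five concentrations. GI50 is the concentration that inhibits growth by half. TGI: concentration producing complete growth inhibition.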

Columns and labels:
Assay in all cases: NCI tumour cell line growth inhibition, 48 h
[1] = test system: OVCAR-8 ovarian
[2] = test system: LOX IMVI melanoma
[3] = test system: SW-620 colon
[4] = test system: 786-0 renal
[5] = test system: SK-MEL-2 melanoma
[6] = test system: COLO 205 colon
[7] = test system: SNB-75 CNS
[8] = test system: IGROV1 ovarian
[9] = test system: BT-549 breast
[10] = test system: DU-145 prostate

| Compound | GI50 [1] | TGI [1] | GI50 [2] | TGI [2] | GI50 [3] | TGI [3] [µM] | GI50 [4] | TGI [4] | TGI [5] | GI50 [6] | TGI [6] [µM] | GI50 [7] | GI50 [8] | TGI [8] | GI50 [9] | GI50 [10] | TGI [10] | TGI [7] | TGI [9] | GI50 [5] |
| --- | --- | --- | --- | --- | --- | --- | --- | --- | --- | --- | --- | --- | --- | --- | --- | --- | --- | --- | --- | --- |
| Cc1c(N)nc(C(CC(N)=O)NCC(N)C(N)=O)nc1C(=O)NC(C(=O)NC(C)C(O)C(C)C(=O)NC(C(=O)NCCc1nc(-c2nc(C(=O)NCCCNCCCCN)cs2)cs1)C(C)O)C(OC1OC(CO)C(O)C(O)C1OC1OC(CO)C(O)C(OC(N)=O)C1O)c1cnc[nH]1 (configuration not stated) | 2.1 µg/mL and 1.04 µg/mL | 9.85 µg/mL and 25.1 µg/mL and > 10 µM | 0.324 µg/mL and 0.149 µg/mL | 3.47 µg/mL and 10.3 µg/mL and > 10 µM | 25.2 µg/mL | > 10 | 0.895 µg/mL and 0.562 µg/mL | 19.4 µg/mL and > 10 µM | > 10 µM | 8.7 µg/mL and 4.7 µg/mL | > 10 | 8.83 µg/mL and 3.08 µg/mL | 9.17 µg/mL and 6.68 µg/mL | > 10 µM | 13.7 µg/mL | 2.17 µg/mL and 11.3 µg/mL | 48 µg/mL | – | – | – |
| O=C(Nc1ccccc1C(=O)Nc1nccs1)c1ccccc1 | – | > 100 µM | – | > 100 µM | – | > 100 | – | > 100 µM | > 100 µM | – | > 100 | – | – | > 100 µM | – | – | > 100 µM | > 100 µM | > 100 µM | – |
| CC(C)N(Cc1ccccc1)S(=O)(=O)c1n[nH]c(C(C)(C)C)n1 | – | > 100 µM | – | > 100 µM | – | > 100 | – | > 100 µM | > 100 µM | – | > 100 | – | – | > 100 µM | – | – | > 100 µM | > 100 µM | > 100 µM | – |
| COc1cc(N=Nc2cccc(S(N)(=O)=O)c2)c2ccccc2c1N | – | 56 µM | – | 18.1 µM | – | > 95.3 | – | 26.9 µM | 5.13 µM | – | 26.5 | – | – | 28.4 µM | – | – | 3.43 µM | 4.56 µM | 20.7 µM | – |
| C[C@H]1CC2=CC(=O)CC[C@]2(C)[C@H]2CC[C@@]3(C)[C@@H](CC[C@]3(C)O)[C@H]12 | 34 µM | > 100 µM | 29.2 µM | > 100 µM | 35.8 µM | > 100 | 42.5 µM | > 100 µM | 37.4 µM | 15.8 µM | 36.1 | 40.2 µM | 27.3 µM | > 73.3 µM | 24.7 µM | 45.7 µM | > 96.3 µM | > 100 µM | 71.9 µM | 15.4 µM |
| COc1cc(/C=C/c2cc(/C=C/c3ccc(O)c(OC)c3)[nH]c(=O)n2)ccc1O | 3.01 µM | 12.7 µM | 3.16 µM | > 100 µM | 3.17 µM | 16.6 | 2.73 µM | 33 µM | 6.7 µM | 2.03 µM | 4.03 | 1.72 µM | 4.41 µM | > 100 µM | 2.06 µM | 4.91 µM | 35.4 µM | 12 µM | 8.08 µM | 2.88 µM |
| S=C(Nc1ccccc1)N1CCn2c1nsc2=Nc1ccccc1 | > 100 µM | > 100 µM | 29.1 µM | > 100 µM | 48.4 µM | > 100 | 53.3 µM | > 100 µM | > 100 µM | > 100 µM | > 100 | 66.5 µM | 50.2 µM | > 100 µM | 76.7 µM | > 100 µM | > 100 µM | > 100 µM | > 100 µM | > 100 µM |
| CC(C)(F)C[C@H](N[C@@H](c1ccc(-c2ccc(S(C)(=O)=O)cc2)cc1)C(F)(F)F)C(=O)NC1(C#N)CC1 | 18 µM and 19.5 µM | 55 µM and 63.8 µM | > 100 µM | > 100 µM | > 100 µM | > 100 | 9.02 µM and 26.2 µM | 55 µM and 87.8 µM | 55 µM and > 100 µM | > 100 µM | > 100 | 7.51 µM and 16.4 µM | 33.2 µM and 30.2 µM | 55 µM and 91.2 µM | 8.65 µM and 28.2 µM | 47.6 µM and 44.4 µM | 55 µM and > 100 µM | 29.8 µM and 39.4 µM | 55 µM and 82.8 µM | 13.4 µM and 38.6 µM |
| COc1cc(/C=C\c2cc(OC)c(OC)c(OC)c2)cc(NS(=O)(=O)c2cccc(Cl)c2)c1OC | 0.429 µM | > 100 µM | 0.0574 µM | > 100 µM | 0.0438 µM | > 100 | 0.0601 µM | > 100 µM | > 100 µM | 0.261 µM | 0.851 | 0.0298 µM | 0.0887 µM | > 100 µM | 0.0338 µM | 0.0676 µM | > 100 µM | > 100 µM | 2.46 µM | 1.38 µM |
| C#CCOc1cccc(Nc2ncc3ncn(C4CCN(C(=O)CCl)C4)c3n2)c1 (configuration not stated) | > 62.5 µM | > 62.5 µM | 13.2 µM | > 62.5 µM | 15.4 µM | > 62.5 | > 62.5 µM | > 62.5 µM | > 62.5 µM | > 62.5 µM | > 62.5 | > 62.5 µM | 6.79 µM | > 62.5 µM | 18.3 µM | > 62.5 µM | > 62.5 µM | > 62.5 µM | > 62.5 µM | > 62.5 µM |
